Measurements taken from patent publication US10350210B2, “EGFR and ALK dual inhibitor” (PRECEDO PHARMACEUTICALS CO., LTD, priority 2015, dated 2019).

Columns and labels:
NCI-H1975 = assay: Growth of cancer cells (Cell Titer-Glo viability), NCI-H1975; format: cell-based; conditions: Homo sapiens; NCI-H1975 (EGFR L858R/T790M double mutant), 72 hrs
Text: (§1) By testing the effect of the novel kinase inhibitors on the proliferation of cancer cells, the selectivity of the compounds of the present disclosure in inhibiting the proliferation of cancer cells was further assessed. In this example, human non-small cell lung cancer cell NCI-H1975 (expressing EGFR L858R/T790M double mutant gene), human skin squamous carcinoma cell A431 (expressing wild-type EGFR gene), non-small cell lung cancer NCI-H3255 (expressing EGFR L858R mutant gene), non-small cell lung cancer cell NCI-H3122 (expressing ALK gene), human non-small cell lung cancer cell A549 (expressing wild-type EGFR gene), human non-small cell lung cancer cell NCI-H2122 (expressing wild-type EGFR gene), human non-small cell lung cancer cell NCI-H460 (expressing wild-type EGFR gene), human non-small cell lung cancer cell PC-9 (expressing EGFR delE746_A750 mutant gene), Chinese hamster ovary cell CHO (Cricetulus griseus, hamster, Chinese, ovary), Chinese hamster lung cell CHL, human non-small cell lung cancer cell HCC827 (expressing mutant EGFR del19 gene), human lung adenocarcinoma cell HCC4006 (expressing mutant EGFR del19 gene), human non-small cell lung cancer cell NCI-H2228 (expressing wild-type ALK gene), and mouse primary B cell BaF3 were used, and the above cells were all purchased from ATCC (US). In addition, mouse BaF3-TEL-ALK (stably expressing ALK kinase), mouse BaF3-ALK-F1174L (stably expressing mutant ALK F1174L kinase), mouse BaF3-NPM-ALK (stably expressing ALK kinase), mouse BaF3-TEL-EGFR (stably expressing EGFR kinase), mouse BaF3-TEL-EGFR-T790M (stably expressing EGFR T790M mutant kinase), mouse BaF3-FL-EGFR-Del19 (stably expressing EGFR delE746_A750 mutant kinase), mouse BaF3-TEL-EGFR-L858R (stably expressing EGFR L858R mutant kinase), mouse BaF3-FL-EGFR-T790M-L858R (stably expressing EGFR T790M/L858R mutant kinase), mouse BaF3-TEL-INSR (stably expressing INSR protein), mouse BaF3-TEL-IGF1R (stably expressing IGF1R Protein), mouse BaF3-EML4-ALK (stably expressing EML4-ALK Protein), mouse BaF3-TEL-JAK3 (stably expressing JAK3 kinase protein), mouse BaF3-TEL-CSF1R (stably expressing CSF1R protein), and mouse BaF3-TEL-ALK-F1196M (stably expressing ALK F1196M mutant kinase) were also used in this example. The above cell lines were all established by our laboratory via the following process: kinase proteins or protein domain sequences of human ALK, ALK F1174L, EGFR, EGFR T790M, EGFR delE746_A750, EGFR L858, EGFR T790M/L858R, INSR, IGF1R, EML4-ALK, JAK3, CSF1R, ALK F1196M were amplified respectively by PCR, and were respectively inserted into MSCV-Puro vector (Clontech) with N-terminal TEL fragments and/or NPM fragments and/or TPR fragments; the resultants were stably transfected into mouse BaF3 cells by the means of retrovirus, and the IL-3 growth factors were removed, and eventually the ALK, ALK F1174L, EGFR, EGFR T790M, EGFR delE746_A750, EGFR L858, EGFR T790M/L858R, INSR, IGF1R, EML4-ALK, JAK3, CSF1R, ALK F1196M-transferred protein dependent cell lines were obtained.
(§2) The number of viable cells was determined quantitatively by a microplate reader using Cell Titer-Glo® (Promega, US) chemiluminescence cell viability assay kit.

PC-9 = assay: Growth of cancer cells (Cell Titer-Glo viability), PC-9; format: cell-based; conditions: Homo sapiens; PC-9 (EGFR delE746_A750 mutant), 72 hrs
Text: as §1, §2

A431 = assay: Growth of cancer cells (Cell Titer-Glo viability), A431; format: cell-based; conditions: Homo sapiens, A-431; A431 (wild-type EGFR), 72 hrs; read-out: GI50
Text: as §1, §2

CHO = assay: Cell growth (Cell Titer-Glo viability), CHO; format: cell-based, Chinese hamster; conditions: Cricetulus griseus; CHO Chinese hamster ovary cell, 72 hrs; read-out: GI50
Text: as §1, §2

CHL = assay: Cell growth (Cell Titer-Glo viability), CHL; format: cell-based, Chinese hamster; conditions: Cricetulus griseus; CHL Chinese hamster lung cell, 72 hrs; read-out: GI50
Text: as §1, §2

NCI-H2122 = assay: Growth of cancer cells (Cell Titer-Glo viability), NCI-H2122; format: cell-based; conditions: Homo sapiens; NCI-H2122 (wild-type EGFR), 72 hrs
Text: as §1, §2

A549 = assay: Growth of cancer cells (Cell Titer-Glo viability), A549; format: cell-based; conditions: Homo sapiens; A549 (wild-type EGFR), 72 hrs
Text: as §1, §2

HCC827 = assay: Growth of cancer cells (Cell Titer-Glo viability), HCC827; format: cell-based; conditions: Homo sapiens; HCC827 (mutant EGFR del19), 72 hrs
Text: as §1, §2

HCC4006 = assay: Growth of cancer cells (Cell Titer-Glo viability), HCC4006; format: cell-based; conditions: Homo sapiens; HCC4006 (mutant EGFR del19), 72 hrs
Text: as §1, §2

NCI-H3122 = assay: Growth of cancer cells (Cell Titer-Glo viability), NCI-H3122; format: cell-based; conditions: Homo sapiens; NCI-H3122 (expressing ALK gene), 72 hrs; read-out: GI50
Text: as §1, §2

NCI-H2228 = assay: Growth of cancer cells (Cell Titer-Glo viability), NCI-H2228; format: cell-based; conditions: Homo sapiens; NCI-H2228 (wild-type ALK), 72 hrs
Text: as §1, §2

BaF3 = assay: Cell growth (Cell Titer-Glo viability), BaF3; format: cell-based; conditions: BaF3 mouse primary B cell, 72 hrs
Text: as §1, §2

BaF3-TEL-ALK = assay: Cell growth (Cell Titer-Glo viability), BaF3-TEL-ALK; format: cell-based; conditions: Mus musculus; BaF3-TEL-ALK (stably expressing ALK kinase), 72 hrs
Text: as §1, §2

BaF3-ALK-F1174L = assay: Cell growth (Cell Titer-Glo viability), BaF3-ALK-F1174L; format: cell-based; conditions: Mus musculus; BaF3-ALK-F1174L (mutant ALK F1174L kinase), 72 hrs
Text: as §1, §2

BaF3-TEL-EGFR-T790M = assay: Cell growth (Cell Titer-Glo viability), BaF3-TEL-EGFR-T790M; format: cell-based; conditions: Mus musculus; BaF3-TEL-EGFR-T790M (EGFR T790M mutant kinase), 72 hrs
Text: as §1, §2

BaF3-FL-EGFR-Del19 = assay: Cell growth (Cell Titer-Glo viability), BaF3-FL-EGFR-Del19; format: cell-based; conditions: Mus musculus; BaF3-FL-EGFR-Del19 (EGFR delE746_A750 mutant kinase), 72 hrs
Text: as §1, §2

NCI-H3255 = assay: Growth of cancer cells (Cell Titer-Glo viability), NCI-H3255; format: cell-based; conditions: Homo sapiens; NCI-H3255 (EGFR L858R mutant), 72 hrs
Text: as §1, §2

BaF3-NPM-ALK = assay: Cell growth (Cell Titer-Glo viability), BaF3-NPM-ALK; format: cell-based; conditions: Mus musculus; BaF3-NPM-ALK (stably expressing ALK kinase), 72 hrs
Text: as §1, §2

BaF3-TEL-INSR = assay: Cell growth (Cell Titer-Glo viability), BaF3-TEL-INSR; format: cell-based; conditions: Mus musculus; BaF3-TEL-INSR (stably expressing INSR protein), 72 hrs
Text: as §1, §2

Compound | GI50 (NCI-H1975) [nM] | GI50 (PC-9) [nM] | GI50 (A431) [nM] | GI50 (CHO) [nM] | GI50 (CHL) [nM] | GI50 (NCI-H2122) [nM] | GI50 (A549) [nM] | GI50 (HCC827) [nM] | GI50 (HCC4006) [nM] | GI50 (NCI-H3122) [nM] | GI50 (NCI-H2228) [nM] | GI50 (BaF3) [nM] | GI50 (BaF3-TEL-ALK) [nM] | GI50 (BaF3-ALK-F1174L) [nM] | GI50 (BaF3-TEL-EGFR-T790M) [nM] | GI50 (BaF3-FL-EGFR-Del19) [nM] | GI50 (NCI-H3255) [nM] | GI50 (BaF3-NPM-ALK) [nM] | GI50 (BaF3-TEL-INSR) [nM]
C=CC(=O)Nc1cc(Nc2ncc(Cl)c(Nc3ccccc3S(=O)(=O)C(C)C)n2)c(OC)cc1N1CCN(C(=O)OC(C)(C)C)CC1 [Compound 3, tert-butyl 4-(2-acrylamido-4-(5-chloro-4-(2-(isopropylsulfonyl)phenylamino)pyrimidin-2-ylamino)-5-methoxyphenyl)piperazine-1-carbonate] | 380 | 250 | 1200 | > 10000 | > 10000 | 710 | > 10000 | 370 | 1100 | 32 | 560 | 4700 | 24 | 1300 | 290 | 130 | – | – | –
C=CC(=O)Nc1cc(Nc2ncc(Cl)c(Nc3ccccc3P(C)(C)=O)n2)c(OC)cc1N1CCC(N(C)C)CC1 [Compound 49, N-(5-(5-chloro-4-(2-(dimethylphosphinoyl)phenylamino)pyrimidin-2-ylamino)-2-(4-(dimethylamino)piperidin-1-yl)-4-methoxyphenyl)acrylamide] | 220 | 120 | – | – | – | – | 8600 | 15 | – | 140 | – | > 10000 | 450 | – | – | – | 350 | 600 | 920
C=CC(=O)Nc1cc(Nc2ncc(Cl)c(Nc3ccccc3P(C)(C)=O)n2)c(OC)cc1N1CCN(CC)CC1 [Compound 47, N-(5-(5-chloro-4-(2-(dimethylphosphinoyl)phenylamino)pyrimidin-2-ylamino)-2-(4-ethylpiperazin-1-yl)-4-methoxyphenyl)acrylamide] | 26 | 5 | – | – | – | – | 1700 | < 0.3 | – | 37 | – | > 10000 | 74 | – | – | – | 140 | 310 | 72
C=CC(=O)Nc1cc(Nc2ncc(Cl)c(Nc3ccccc3P(C)(C)=O)n2)c(OC)cc1N1CCC(N2CCCCC2)CC1 [Compound 48, N-(5-(5-chloro-4-(2-(dimethylphosphinoyl)phenylamino)pyrimidin-2-ylamino)-4-methoxy-2-(4-(piperidin-1-yl)piperidin-1-yl)phenyl)acrylamide] | 41 | 32 | – | – | – | – | 5300 | 5 | – | 78 | – | 5300 | 190 | – | – | – | 200 | 380 | 290
